The values below come from US12428415B2, “Matriptase 2 inhibitors and uses thereof” (Disc Medicine, Inc., priority 2018, dated 2025).

Like-named read-outs stand apart in the source and are kept apart here.

This test concerns the target T1, Human Recombinant Matriptase 2 (Homo sapiens, UniProt Q8IU80).
T1 construct: purchased Enzo Life Sciences (an in-house preparation was also used) ALX-201-752-1
T1 sequence (Q8IU80 1-811): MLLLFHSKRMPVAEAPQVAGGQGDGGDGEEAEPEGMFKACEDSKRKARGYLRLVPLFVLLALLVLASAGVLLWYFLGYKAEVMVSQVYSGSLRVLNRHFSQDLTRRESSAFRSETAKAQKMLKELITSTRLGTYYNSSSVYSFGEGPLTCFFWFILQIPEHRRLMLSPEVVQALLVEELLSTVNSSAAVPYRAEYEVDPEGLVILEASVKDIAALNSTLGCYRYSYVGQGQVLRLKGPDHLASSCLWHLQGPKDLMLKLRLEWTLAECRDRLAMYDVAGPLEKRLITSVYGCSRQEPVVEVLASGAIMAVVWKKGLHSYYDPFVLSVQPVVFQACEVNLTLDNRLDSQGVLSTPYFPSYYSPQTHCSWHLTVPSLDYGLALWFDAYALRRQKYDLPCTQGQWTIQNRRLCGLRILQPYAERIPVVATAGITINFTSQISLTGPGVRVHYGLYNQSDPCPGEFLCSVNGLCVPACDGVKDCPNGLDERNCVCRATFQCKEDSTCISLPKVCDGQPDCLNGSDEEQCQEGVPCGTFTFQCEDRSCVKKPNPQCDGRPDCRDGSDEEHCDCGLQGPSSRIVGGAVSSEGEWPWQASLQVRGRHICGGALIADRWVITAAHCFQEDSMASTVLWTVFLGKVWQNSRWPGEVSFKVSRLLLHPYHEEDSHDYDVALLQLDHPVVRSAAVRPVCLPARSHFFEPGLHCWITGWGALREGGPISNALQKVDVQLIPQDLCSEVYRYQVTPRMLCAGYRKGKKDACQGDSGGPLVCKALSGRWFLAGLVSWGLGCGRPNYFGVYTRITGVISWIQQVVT
The test is described as follows: Matriptase 2 fluorescence based inhibition assay, Method B (50 mM TRIS pH 7.5, 150 mM NaCl, 0.01% gelatin). The test is classed as biochemical. The conditions noted are these: read-out: Mar-2 % inhibition at 1 uM. In outline:
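Commercial (7 nM) or in-house (15 nM) enzyme preincubated 30 min with compound at 25° C, then 100 μM Boc-Gln-Ala-Arg-AMC added; fluorescence (Ex 360/Em 480 nm) read at 60 min. 1% DMSO final. IC50 from variable-slope sigmoidal fit of % inhibition.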

Where [1] appears, read: 1 uM compound, Assay Used = B (Method B).
Setting [2] is: compound at 1 uM, Assay Used: B.

By inhibition is commonly meant the share of the control response that was lost under treatment. For the compound `N=C(N)c1ccc2cc(C(=O)N[C@H]3CCCc4ccccc43)n(Cc3cccc4ccccc34)c2c1` [Compound I-764], the inhibition at 1 µM under setting [1] lay within 0 to 25%.

Turning to `CCCCCCOC(=O)NC(=N)c1ccc2cc(C(=O)NC3CCN(C)CC3)n(Cc3cccc4ccccc34)c2c1` [Compound I-765], the inhibition at 1 µM under setting [1] lay in the range of 0 to 25%. On the same count and under the same terms, the figure for `N=C(N)c1ccc2cc(C(=O)O)n(Cc3cccc4ccccc34)c2n1` [Compound I-766] is 75 to 100%; for `CC(C)(C)OC(=O)NC(=N)c1ccc2cc(C(=O)N[C@H]3CCCc4ccccc43)n(Cc3cccc4ccccc34)c2c1` [Compound I-767] it is 0 to 25%; for `N=C(N)c1ccc2cc(C(=O)N[C@H]3CC[C@H](N)CC3)n(Cc3cccc4cc(-c5ccccc5)ccc34)c2c1` [Compound I-768] it is 75 to 100%. The same measure, in the same setting: as for `N=C(N)c1ccc2cc(C(=O)N[C@H]3CC[C@H](N)CC3)n(Cc3cccc4c(OCc5ccccc5)cccc34)c2c1` [Compound I-769], the figure is 75 to 100%. Same read-out and setting: the figure for `N=C(N)c1ccc2cc(C(=O)N[C@H]3CC[C@H](N)CC3)n(Cc3cccc4cc(OCCCc5ccccc5)ccc34)c2c1` [Compound I-770] is 50 to 75%. `N=C(N)c1ccc2cc(C(=O)Nc3ccc4ncccc4c3)n(Cc3cccc4ccccc34)c2c1` [Compound I-771]: under setting [1], the inhibition at 1 µM lay within 25 to 50%. With `N=C(N)c1ccc2cc(C(=O)N[C@H]3CC[C@H](N)CC3)n(Cc3cc(-c4ccc(Cl)s4)on3)c2c1` [Compound I-773], the inhibition at 1 µM under setting [1] was 50 to 75%. As to `N=C(N)c1ccc2cc(C(=O)N[C@H]3CC[C@H](N)CC3)n(Cc3cc(C(=O)OCc4ccccc4)cc4ccccc34)c2c1` [Compound I-774], under setting [1], the inhibition at 1 µM is 75 to 100%. As for `COc1ccc2cccc(Cn3c(C(=O)N[C@H]4CC[C@H](N)CC4)cc4ccc(C(=N)N)cc43)c2c1` [Compound I-775], under setting [1], the inhibition at 1 µM lay in the range of 75 to 100%. Still for that read-out and setting: the figure for `N=C(N)c1ccc2cc(C(=O)N[C@H]3CC[C@H](N)CC3)n(Cc3cc(Oc4ccccc4)cc4ccccc34)c2c1` [Compound I-777] is 75 to 100%. The same measure, in the same setting: as for `CN1CC[C@H](COC(=O)c2cc3ccc(C(=N)N)cc3n2Cc2cccc3ccccc23)c2ccccc21` [Compound I-779], the figure is 25 to 50%; as for `CC(C)COC(=O)c1cc(Cn2c(C(=O)N[C@H]3CC[C@H](N)CC3)cc3ccc(C(=N)N)cc32)c2ccccc2c1` [Compound I-780], 75 to 100%.

`N=C(N)c1ccc2cc(C(=O)N[C@H]3CC[C@H](N)CC3)n(Cc3ccc(COCc4ccccc4)c4ccccc34)c2c1` [Compound I-781]: the inhibition at 1 µM under setting [1] lay within 75 to 100%. Regarding `CN1CCC(NC(=O)c2cc3ccc(C(=N)NC(=O)Oc4ccccc4)cc3n2Cc2cccc3ccccc23)CC1` [Compound I-782], the inhibition at 1 µM was 50 to 75%. `CC(C)COC(=O)NC(=N)c1ccc2cc(C(=O)NC3CCN(C)CC3)n(Cc3cccc4ccccc34)c2c1` [Compound I-783]: the inhibition at 1 µM under setting [1] fell in the range of 0 to 25%. `CC(C)OC(=O)NC(=N)c1ccc2cc(C(=O)NC3CCN(C)CC3)n(Cc3cccc4ccccc34)c2c1` [Compound I-784]: the inhibition at 1 µM under setting [1] lay in the range of 25 to 50%. Take `CC(C)OC(=O)NC(=N)c1ccc2cc(C(=O)O)n(Cc3cccc4ccccc34)c2c1` [Compound I-786]: under setting [1], the inhibition at 1 µM was 0 to 25%. On the same count and under the same terms, the figure for `CC(C)(C)OC(=O)N[C@H]1CC[C@H](NC(=O)c2cc3ccc(C(=N)N)cc3n2Cc2cccc3ccccc23)CC1` [Compound I-787] is 0 to 25%; for `N=C(N)c1ccc2cc(C(=O)N[C@H]3CC[C@H](N)CC3)n(Cc3ccc(C(=O)N4CCCC4)c4ccccc34)c2c1` [Compound I-790] it is 25 to 50%; for `CC(C)COC(=O)NC(=N)c1ccc2cc(C(=O)O)n(Cc3cccc4ccccc34)c2c1` [Compound I-791] it is 0 to 25%.

Regarding `N=C(N)c1ccc2cc(C(=O)N[C@H]3CC[C@H](N)CC3)n(Cc3cccc4c(Br)cccc34)c2c1` [Compound I-792], the inhibition at 1 µM under setting [1] was 75 to 100%. As for `CC(C)Oc1ccc2c(Cn3c(C(=O)O)cc4ccc(C(=N)N)cc43)cccc2c1` [Compound I-793], the inhibition at 1 µM under setting [1] was in the range of 50 to 75%.

Turning to `N=C(N)c1ccc2cc(C(=O)N[C@H]3CC[C@H](N)CC3)n(Cc3ccc(Br)c4ccccc34)c2c1` [Compound I-794], under setting [1], the inhibition at 1 µM lay in the range of 75 to 100%. On to `COc1ccc2c(Cn3c(C(=O)N[C@H]4CC[C@H](N)CC4)cc4ccc(/C(N)=N\O)cc43)cccc2c1` [Compound I-795], for which the inhibition at 1 µM under setting [1] was in the range of 0 to 25%. The same measure, in the same setting: as for `N=C(N)c1ccc2cc(C(=O)N[C@H]3CC[C@H](N)CC3)n(Cc3cc(C(N)=O)cc4ccccc34)c2c1` [Compound I-796, N-((1r, 4r)-4-aminocyclohexyl)-6-carbamimidoyl-1-((3-carbamoylnaphthalen-1-yl)methyl)-1H-indole-2-carboxamide], the figure is 50 to 75%.

Take `COc1cccc2c(Cn3c(C(=O)N[C@H]4CC[C@H](N)CC4)cc4ccc(C(=N)N)cc43)cccc12` [Compound I-797]: the inhibition at 1 µM under setting [2] was 75 to 100%.

In the case of `CN(C)C(=O)c1ccc(Cn2c(C(=O)N[C@H]3CC[C@H](N)CC3)cc3ccc(C(=N)N)cc32)c2ccccc12` [Compound I-798], the inhibition at 1 µM under setting [2] lay within 50 to 75%.

Consider `COc1ccc2ccccc2c1Cn1c(C(=O)N[C@H]2CC[C@H](N)CC2)cc2ccc(C(=N)N)cc21` [Compound I-799], for which the inhibition at 1 µM under setting [2] is 0 to 25%. Consider `N=C(N)c1ccc2cc(C(=O)N[C@H]3CC[C@H](N)CC3)n(Cc3cc(CO)cc4ccccc34)c2c1` [Compound I-800, N-((1r,4r)-4-aminocyclohexyl)-6-carbamimidoyl-1-((3-(hydroxymethyl)naphthalen-1-yl)methyl)-1H-indole-2-carboxamide], for which the inhibition at 1 µM under setting [2] was 25 to 50%. Same read-out and setting: as for `CNCCCOc1ccc2c(Cn3c(C(=O)O)cc4ccc(C(=N)N)cc43)cccc2c1` [Compound I-801, 6-carbamimidoyl-1-((6-(3-(methylamino)propoxy)naphthalen-1-yl)methyl)-1H-indole-2-carboxylic Acid], the figure is 50 to 75%; as for `C[C@@H](c1cccc2ccccc12)n1c(C(=O)N[C@H]2CC[C@H](N)CC2)cc2ccc(/C(N)=N/O)cc21` [Compound I-802], 0 to 25%. On to `N=C(N)c1ccc2cc(-c3nnn[nH]3)n(Cc3cccc4ccccc34)c2c1` [Compound I-803, 1-(naphthalen-1-ylmethyl)-2-(1H-tetrazol-5-yl)-1H-indole-6-carboximidamide], for which the inhibition at 1 µM under setting [2] was 75 to 100%. For the compound `CN(C)CCCOc1ccc2c(Cn3c(C(=O)N[C@H]4CC[C@H](N)CC4)cc4ccc(C(=N)N)cc43)cccc2c1` [Compound I-804, N-((1r,4r)-4-aminocyclohexyl)-6-carbamimidoyl-1-((6-(3-(dimethylamino)propoxy)naphthalen-1-yl)methyl)-1H-indole-2-carboxamide], under setting [2], the inhibition at 1 µM fell in the range of 75 to 100%. On the same count and under the same terms, as for `C[C@@H](c1cccc2ccccc12)n1c(C(=O)N[C@H]2CC[C@H](N)CC2)cc2ccc(C(=N)N)cc21` [Compound I-805], the figure is 0 to 25%; as for `N=C(N)c1ccc2cc(C(=O)N[C@H]3CC[C@H](N)CC3)n(Cc3cc(C(=O)O)cc4ccccc34)c2c1` [Compound I-806], 50 to 75%. Take `CN(C)CCCOc1ccc2c(Cn3c(C(=O)O)cc4ccc(C(=N)N)cc43)cccc2c1` [Compound I-808]: the inhibition at 1 µM under setting [2] fell in the range of 50 to 75%.

For `N/C(=N\O)c1ccc2cc(C(=O)NC3CCNCC3)n(Cc3cccc4ccccc34)c2c1` [Compound I-809], the inhibition at 1 µM under setting [2] is 25 to 50%.

`N/C(=N\O)c1ccc2cc(C(=O)O[C@H]3CC[C@H](N)CC3)n(Cc3cccc4ccccc34)c2c1` [Compound I-810, (1r,4r)-4-aminocyclohexyl 6-((Z)—N′-hydroxycarbamimidoyl)-1-(naphthalen-1-ylmethyl)-1H-indole-2-carboxylate]: the inhibition at 1 µM under setting [2] lay within 25 to 50%. For the compound `N=C(N)c1ccc2cc(C(=O)OC3CCCCC3)n(Cc3cccc4ccccc34)c2c1` [Compound I-811], the inhibition at 1 µM under setting [2] lay in the range of 25 to 50%. With `CCOC(=O)c1cc(Cn2c(C(=O)N[C@H]3CC[C@H](N)CC3)cc3ccc(C(=N)N)cc32)c2ccccc2c1` [Compound I-812], the inhibition at 1 µM under setting [2] is 75 to 100%. Same read-out and setting: as for `N=C(N)c1ccc2cc(C(=O)N[C@H]3CC[C@H](N)CC3)n(Cc3cccc4sc(CO)cc34)c2c1` [Compound I-813, N-((1r,4r)-4-aminocyclohexyl)-6-carbamimidoyl-1-((2-(hydroxymethyl)benzo[b]thiophen-4-yl)methyl)-1H-indole-2-carboxamide], the figure is 50 to 75%; as for `N=C(N)c1ccc2cc(C(=O)N[C@H]3CC[C@H](N)CC3)n(Cc3cccc4c3CCCC4)c2c1` [Compound I-814], 25 to 50%.
